# Measured values: paper PMC6501426 (Clinical Epigenetics, 2019)
# Key:
# IOR/OS9 = assay: Osteosarcoma cell growth inhibition (trypan blue count); type: cell-based; conditions: Homo sapiens; 96 h of treatment; read-out: IC50 ± SD, cellular viability, IOR/OS9
# Source text: (§1) The patient-derived human OS cell lines Saos-2, U-2OS, and MG-63 were obtained from ATCC (1992). The patient-derived OS cell lines IOR/OS9, IOR/OS20, and IOR/SARG were established and previously characterized at the Laboratory of Experimental Oncology of Rizzoli Orthopedic Institute. Cell lines were profiled for DNA copy number changes and DNA methylation status at approximately 27,000 CpG sites. The cell line PDX-OS#1-C4 was obtained from OS patient-derived xenograft (PDX) after 4 passages in the animal. All cell lines were tested for mycoplasma contamination (Mycoalert Mycoplasma Detection Kit, Lonza, Verviers, Belgium) before use and authenticated by short-tandem repeat polymerase chain reaction (STR PCR) analysis (last control December 2017) using PowerPlex ESX fast System kit (Promega, Madison, WI, USA). The following loci were verified: AMEL, D3S1358, TH01, D21S11, D18S51, D10S1248, D1S1656, D2S1338, D16S539, D22S1054, VWA, D8S1179, FGA, D2S441, D12S391, D19S433, and SE33. All cell lines were immediately amplified to constitute liquid nitrogen stocks and were never passaged for more than 1 month upon thawing. Cells were maintained in Iscove’s modified Dulbecco’s medium (IMDM) supplemented with 10% heat-inactivated FBS (Lonza, Verviers, Belgium), penicillin (20 U/mL), and streptomycin (100 μg/mL) (Sigma-Aldrich, Milan, Italy) in 37 °C humidified at 5% CO2.
# (§2) To perform osteosarcoma cell growth inhibition experiments, 2 × 10^5 cells/well were plated, and MC3353 (0.1–30 μM) or DAC (0.5 μM) was added after 24 h. Cells were exposed for up to 96 h before being counted by Trypan blue vital cell count (Sigma-Aldrich, Milan, Italy). In parallel, the cells were treated with DMSO-containing medium as a control. The highest final concentration of DMSO in the medium was < 0.005%, and DMSO had no effect on cell growth.
# (§3) IC50 values of compounds against cellular viability were determined by using nonlinear regression fitting curves with GraphPad Prism 8 or CalcuSyn software The t test used for statistical analyses was performed with GraphPad Prism 8. All the tests were one-tailed, and a p value < 0.05 was considered statistically significant.
# PDX-OS#1-C4 = assay: as above; type: cell-based; conditions: Homo sapiens; 96 h of treatment; read-out: IC50 ± SD, cellular viability, PDX-OS#1-C4
# Source text: as §1, §2, §3
# IOR/OS20 = assay: as above; type: cell-based; conditions: Homo sapiens; 96 h of treatment; read-out: IC50 ± SD, cellular viability, IOR/OS20
# Source text: as §1, §2, §3
# Saos-2 = assay: as above; type: cell-based; conditions: Homo sapiens, 96 h of treatment, read-out: IC50 ± SD, cellular viability, Saos-2
# Source text: as §1, §2, §3
# IOR/SARG = assay: as above; type: cell-based; conditions: Homo sapiens; 96 h of treatment; read-out: IC50 ± SD, cellular viability, IOR/SARG
# Source text: as §1, §2, §3
# U-2OS = assay: as above; type: cell-based; conditions: Homo sapiens, U2OS; 96 h of treatment; read-out: IC50 ± SD, cellular viability, U-2OS
# Source text: as §1, §2, §3
# MG63 = assay: as above; type: cell-based; conditions: Homo sapiens, MG-63; 96 h of treatment; read-out: IC50 ± SD, cellular viability, MG63
# Source text: as §1, §2, §3
# [1] = test system: primary osteosarcoma cell lines; assay: Growth inhibition in panel of primary osteosarcoma cell lines; type: cell-based; conditions: Homo sapiens; range over the osteosarcoma panel
# Description: as §2, §3
# human DNMT1 = target: T1, human DNMT1 (Homo sapiens, UniProt P26358); assay: DNMT1 assay (radiolabeled SAM, Flashplate); type: biochemical
# T1 construct: His; made in house
# T1 sequence (P26358 whole entry): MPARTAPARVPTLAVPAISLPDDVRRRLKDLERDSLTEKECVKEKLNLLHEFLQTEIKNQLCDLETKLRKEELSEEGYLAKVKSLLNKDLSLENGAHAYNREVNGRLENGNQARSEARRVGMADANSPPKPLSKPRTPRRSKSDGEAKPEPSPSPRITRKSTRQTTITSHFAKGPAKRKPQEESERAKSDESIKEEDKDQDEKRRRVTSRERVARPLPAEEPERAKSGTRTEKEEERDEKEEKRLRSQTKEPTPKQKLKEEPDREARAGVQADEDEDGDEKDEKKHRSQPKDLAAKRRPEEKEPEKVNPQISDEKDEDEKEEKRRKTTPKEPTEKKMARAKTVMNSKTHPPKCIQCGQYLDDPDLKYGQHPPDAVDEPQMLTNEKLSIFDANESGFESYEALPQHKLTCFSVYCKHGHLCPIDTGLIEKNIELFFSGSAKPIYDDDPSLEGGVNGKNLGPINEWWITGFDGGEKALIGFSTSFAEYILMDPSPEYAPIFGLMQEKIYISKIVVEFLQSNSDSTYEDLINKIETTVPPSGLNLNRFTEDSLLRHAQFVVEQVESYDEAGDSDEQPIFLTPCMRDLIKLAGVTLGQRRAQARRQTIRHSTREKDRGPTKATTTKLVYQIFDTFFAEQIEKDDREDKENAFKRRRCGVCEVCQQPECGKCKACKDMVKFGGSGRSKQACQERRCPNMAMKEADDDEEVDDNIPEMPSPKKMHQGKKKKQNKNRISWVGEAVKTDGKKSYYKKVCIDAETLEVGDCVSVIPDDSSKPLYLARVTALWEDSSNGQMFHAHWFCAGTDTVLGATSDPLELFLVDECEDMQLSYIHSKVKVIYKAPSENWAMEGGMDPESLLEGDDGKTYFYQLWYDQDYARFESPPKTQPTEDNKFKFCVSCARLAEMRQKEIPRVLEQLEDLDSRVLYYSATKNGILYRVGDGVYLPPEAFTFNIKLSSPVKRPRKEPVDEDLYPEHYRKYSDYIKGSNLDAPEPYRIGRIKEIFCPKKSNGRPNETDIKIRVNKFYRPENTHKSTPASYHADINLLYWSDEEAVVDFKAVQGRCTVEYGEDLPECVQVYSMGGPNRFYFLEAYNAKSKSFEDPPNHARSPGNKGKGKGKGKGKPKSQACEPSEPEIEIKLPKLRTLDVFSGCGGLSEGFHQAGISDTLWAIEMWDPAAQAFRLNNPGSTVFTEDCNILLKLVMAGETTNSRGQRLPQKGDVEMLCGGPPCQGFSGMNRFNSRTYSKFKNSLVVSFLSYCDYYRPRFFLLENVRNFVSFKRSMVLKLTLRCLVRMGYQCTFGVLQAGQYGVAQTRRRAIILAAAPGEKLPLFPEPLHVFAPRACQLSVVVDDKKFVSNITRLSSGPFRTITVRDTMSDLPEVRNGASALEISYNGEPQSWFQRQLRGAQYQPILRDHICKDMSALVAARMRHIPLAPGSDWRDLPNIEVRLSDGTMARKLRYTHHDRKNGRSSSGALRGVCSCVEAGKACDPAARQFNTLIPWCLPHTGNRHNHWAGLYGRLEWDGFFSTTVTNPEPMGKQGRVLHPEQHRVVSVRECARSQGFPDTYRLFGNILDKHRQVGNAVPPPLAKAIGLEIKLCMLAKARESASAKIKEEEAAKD
# Description: His-DNMT1 (182 kDa, human) was cloned, expressed, and purified as described by Lee et al.. The DNMT1 assay was performed according to Gros et al.. Briefly, the DNMT1 enzymatic assay is based on the use of radiolabeled SAM, and the methylation occurs in homogeneous phase in 384-well microplates. The reaction is performed with DNMT1 at the final concentration of 90 nM in a total volume of 10 μL including also the chemical compound to be tested at the desired concentration, 1.25 μM of SAM//[methyl-^3H] SAM (3TBq/mmol) mix in a ratio of 3:1 and 0.3 μM of biotinylated DNA duplex. DNMT1, as “maintenance” methyltransferase, requires hemimethylated DNA for the reaction. After 2 h incubation at 37 °C, 8 μL of the reaction’s solution is transferred into a streptavidin 96-well scintillant coated Flashplate^TM containing 190 μL of […] in 50 mM Tris-HCl (pH 7.4). The Flashplate^TM is then agitated at room temperature for 1 h and washed. The plate is read with TopCount (PerkinElmer, Villebon-sur-Yvette, France). The greater the DNMT1 inhibition, the lower will be the scintillation signal correlated to the incorporation of the tritiated methyl groups. In this assay, the negative and positive controls were defined as wells without enzyme and wells without any compound but just DMSO, respectively.
# [2] = test system: MMP2 protein in PC-3 cells; assay: Western blot of MMP2 in PC-3; type: cell-based, human; conditions: 1 μM, 24 h
# Source text: (§4) Cells were lysed in Laemmli buffer; subsequently, the proteins were resolved by sodium dodecyl sulfate-polyacrylamide gel electrophoresis and transferred to a 0.45-μm nitrocellulose membrane (Bio-Rad Laboratories, Hercules, CA). The following primary antibodies were used for immunoblotting: α-E-cadherin (BD Transduction Laboratories, Franklin Lakes, NJ), α-MMP2 (Abcam), α-DNMT3a (Santa Cruz Biotechnologies, Dallas, TX), and α-GAPDH (Millipore Corp., Bedford, MA), used as a loading control. The immune complexes were detected with horseradish peroxidase-conjugated species-specific secondary antiserum (Bio-Rad Laboratories, Milan, Italy) then by enhanced chemiluminescence reaction (Bio-Rad Laboratories, Milan, Italy). Densitometric analysis of protein expression was performed by using the Fiji ImageJ image processing package.
# (§5) Fig. 8 Effects of MC3353 on E-cadherin and MMP2 protein expression levels in PC-3 cancer cells. Cells were treated with vehicle (DMSO) used as control (CTR) or MC3353 for 24 h. a E-cadherin and MMP2 protein detection by western blot. GAPDH was used as a loading control. Blots are representative of three independent experiments. b Densitometric analysis of E-cadherin and MMP2 protein expression. Significance is represented as *p < 0.05 related to the control groups. Data were obtained from three independent experiments and expressed as mean ± SEM
# [3] = test system: E-cadherin protein in PC-3 cells; assay: Western blot of E-cadherin in PC-3; type: cell-based, human; conditions: 1 μM, 24 h
# Source text: as §4, §5
SMILES,IC50 (IOR/OS9),IC50 (PDX-OS#1-C4),IC50 (IOR/OS20),IC50 (Saos-2),IC50 (IOR/SARG),IC50 (U-2OS),IC50 (MG63),IC50 [1],"EC50 (human DNMT1; radioactivity assay, at least two independent experiments, read-out: EC50 ± SD, hDNMT1)",fold less effective than SGI-1027 against hDNMT1 (human DNMT1; ratio of EC50 values),fold more potent than RG-108 against hDNMT1 (human DNMT1; ratio of EC50 values),"MMP2 protein level (western blot, densitometry), PC-3 [2]","E-cadherin protein expression (western blot, densitometry), PC-3 [3]"
"Nc1ncn([C@H]2C[C@H](O)[C@@H](CO)O2)c(=O)n1 [DAC, 5-aza-2′-deoxycytidine, reference compound]",5700 ± 3400 nM,700 ± 600 nM,9200 ± 2200 nM,1000 ± 900 nM,5400 ± 1000 nM,1100 ± 900 nM,200 ± 200 nM,,,,,,
"O=C(Nc1ccc(NC(=O)c2ccc(Nc3ccnc4ccccc34)cc2)cc1)OCc1ccccc1 [MC3353, Benzyl (4-(4-(quinolin-4-ylamino)benzamido)phenyl)carbamate]",2000 ± 100 nM,2000 ± 100 nM,1500 ± 100 nM,1100 ± 300 nM,1500 ± 100 nM,1400 ± 100 nM,2400 ± 1700 nM,1100 to 2400 nM,67000 ± 4000 nM,5.6 fold,6 fold,reduced MMP2 protein levels,significantly induced E-cadherin expression
